Assay results published in patent US7951548B2, “IL-13 production inhibitor” (Takeda Pharmaceutical Company Limited, priority 2005, dated 2011).

What was measured:
Format in all cases: cell-based
[1] = target: T1, GPR34 (Homo sapiens, UniProt Q9UPC5); experiment: MAPK activation: phosphorylation of ERK1/2 in human GPR34-expressed CHO cells (western blotting); conditions: human GPR34-expressed CHO cells
T1 construct: expressed in transfected cells
Method: The cells were prepared as described below. Human GPR34-expressed CHO cells were scraped off with 0.05% trypsin-EDTA (GIBCO) and suspended in a medium (MEM-α (GIBCO), supplemented with 10% FBS (GIBCO) and penicillin/streptomycin (BIOWHITTAKER)). After centrifugation, the cells precipitated were suspended in the medium in 2×10^5 cells/ml and a 1 mL aliquot was plated on a 35 mm cell culture dish. After incubation overnight in a CO2 incubator, the medium was aspirated and washed in PBS. Then 1 mL of serum-free medium (MEM-α (GIBCO), supplemented with penicillin/streptomycin (BIOWHITTAKER)) and incubation was performed in a CO2 incubator. Pertussis toxin (hereinafter PTX) was added in a final concentration of 0.1 μg/mL 20 hours before the assay.
The cells were activated as follows. The medium was aspirated and washed in PBS. Thereafter, 500 μL of assay buffer (HBSS (GIBCO), 10 mM HEPES (Dojin Chemical Laboratory)) was added to perform preincubation for 15 minutes at 37° C. The lysoPS solution and […] of PECGF ([…] cell growth factor) solution as a positive control were added. After the mixture was incubated at 37° C., the reaction was terminated by quenching. The assay buffer was aspirated and washed in PBS. Then, 1×SDS sample buffer/DTT was added to the cells to recover the cells. After ultrasonication for 15 seconds, heating at 95° C. for 5 minutes was followed by quenching.
Detection by SDS-PAGE and western blotting were performed as follows. After separation using 10% Bis-Tris gel (Invitrogen), the gel was transferred to Immuno-Blot PVDF Membrane (Bio-Rad). The membrane was blocked with Block Ace (Dai-Nippon Pharmaceutical) and incubated at room temperature for an hour with a primary antibody (Phospho-p42/p44 MAP Kinase (Thr202/Thr204) Antibody (CST) or p42/p44 MAP Kinase Antibody (CST)) and further incubated at room temperature for an hour using a secondary antibody (Anti-rabbit IgG (CST)). The membrane after the antibody reaction was visualized by chemiluminescence using ECL PLUS (Amersham Biosciences). […]

[2] = target: T1, GPR34; experiment: Intracellular cAMP production inhibitory activity on GPR34-expressed CHO cells (forskolin stimulated); conditions: phosphatidylserine in a higher concentration
Method: The GPR34-expressed CHO cells prepared in (1-2) described above and selected in (1-3) described above were plated on a 24-well plate in 6×10^4 cells/well followed by incubation for 48 hours. The cells were washed with αMEM medium (pH 7.5) containing 0.2 mM 3-isobutylmethylxanthine, 0.05% BSA and 20 mM HEPES (hereinafter αMEM medium (pH 7.5) containing 0.2 mM 3-isobutylmethylxanthine, 0.05% BSA and 20 mM HEPES is referred to as the reaction buffer). Thereafter, 0.5 mL of the reaction buffer was added and the mixture was kept warm for 30 minutes in an incubator. The reaction buffer was removed and 0.25 mL of fresh reaction buffer was replenished to the cells. Then, 0.25 mL of the reaction buffer containing a sample and 2 μM forskolin was added to the cells, followed by reacting at 37° C. for 30 minutes. The reaction solution was removed and 0.5 mL of the cell lysis solution attached to cAMP EIA kit (Applied Biosystems) to extract cAMP in the cells. The cAMP level in the extract was quantified using the same kit. Based on this measurement data, the cAMP production inhibitory activity was calculated based on the equation shown below and expressed in terms of percentage to the control group. […]

[3] = system: other receptor expression cells; experiment: cAMP production inhibitory activity on other receptor expression cells
[4] = system: rat primary culture microglial cells (PMGC); experiment: Changes of intracellular calcium levels in rat primary culture microglial cells (FLIPR); conditions: 0.2 to 10 μM lysoPS
Method: The reactivity of rat primary culture microglial cells (PMGC) with lysoPS was examined using FLIPR. PMGC was incubated in DMEM (Invitrogen) supplemented with 10% calf fetal serum (Invitrogen), unless otherwise indicated. PMGC, which was prepared from the brain of rat of one day old one day before assay, was plated on a Black walled 96-well plate (Costar) at 5.0×10^4 cells/well, and incubated overnight at 37° C. in a CO2 incubator adjusted to 5% CO2. After lysoPS was added to the PMGC, changes of intracellular calcium levels in this case were assayed using FLIPR (Molecular Device). To assay the changes of intracellular calcium levels on FLIPR, the following pretreatment was performed. First, an assay buffer was prepared to incorporate fluorescent dye Fluo-3AM (DOJIN) in the cells or wash the cells immediately before the FLIPR assay. To a solution of 20 ml of 1M HEPES (pH 7.4) (DOJIN) to 1000 ml of HBSS (Invitrogen) (hereinafter, HBSS/HEPES solution), 10 ml of the solution mixture obtained by dissolving 710 mg of Probenecid (Sigma) in 5 ml of 1N NaOH and further adding 5 ml of the HBSS/HEPES solution thereto was added. The resulting solution was used as an assay buffer. Next, 50 μg of Fluo-3AM was dissolved in 21 μl of DMSO (DOJIN) and an equal volume of 20% Pluronic acid (Molecular Device) was further mixed therewith. […]

T1 sequence (Q9UPC5 whole entry): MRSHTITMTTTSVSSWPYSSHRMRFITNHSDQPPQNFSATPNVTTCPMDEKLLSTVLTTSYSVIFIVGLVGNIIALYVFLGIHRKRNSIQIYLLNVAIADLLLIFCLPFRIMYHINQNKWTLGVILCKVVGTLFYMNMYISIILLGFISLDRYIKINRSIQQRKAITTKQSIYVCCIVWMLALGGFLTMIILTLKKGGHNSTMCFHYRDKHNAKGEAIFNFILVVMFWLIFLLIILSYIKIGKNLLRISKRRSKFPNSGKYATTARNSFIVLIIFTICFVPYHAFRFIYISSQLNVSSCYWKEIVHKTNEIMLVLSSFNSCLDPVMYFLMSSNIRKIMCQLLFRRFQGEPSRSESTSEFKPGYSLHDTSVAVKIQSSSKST

Substance: lysophosphatidylserine [lysoPS]
- phosphorylation of ERK1/2 30 minutes after the stimulation [1]: the phosphorylation was noted
- time of maximum response of ERK1/2 phosphorylation after the stimulation [1]: about 5 minutes
- cAMP production inhibitory activity [2]: marked activities
- cAMP production inhibitory action on other receptor expression cells [3]: not noted
- increase in intracellular calcium levels [4]: responded concentration-dependently
